Results from patent publication US20260138961A1, “MODULATORS OF MITOCHONDRIAL DNA REPLICATION” (Pretzel Therapeutics, Inc., priority 2022, published 2026).

Each compound was assayed against T1, POLγA:A467T (Homo sapiens, UniProt P54098, A467T) (assay: DNA polymerization assay, POLγA:A467T mutant). Details: stimulation of polymerase activity, primed M13mp18 ssDNA, 37° C. 2 hours; read-out: A467T AC50.
T1 sequence (P54098 1-1239 A467T): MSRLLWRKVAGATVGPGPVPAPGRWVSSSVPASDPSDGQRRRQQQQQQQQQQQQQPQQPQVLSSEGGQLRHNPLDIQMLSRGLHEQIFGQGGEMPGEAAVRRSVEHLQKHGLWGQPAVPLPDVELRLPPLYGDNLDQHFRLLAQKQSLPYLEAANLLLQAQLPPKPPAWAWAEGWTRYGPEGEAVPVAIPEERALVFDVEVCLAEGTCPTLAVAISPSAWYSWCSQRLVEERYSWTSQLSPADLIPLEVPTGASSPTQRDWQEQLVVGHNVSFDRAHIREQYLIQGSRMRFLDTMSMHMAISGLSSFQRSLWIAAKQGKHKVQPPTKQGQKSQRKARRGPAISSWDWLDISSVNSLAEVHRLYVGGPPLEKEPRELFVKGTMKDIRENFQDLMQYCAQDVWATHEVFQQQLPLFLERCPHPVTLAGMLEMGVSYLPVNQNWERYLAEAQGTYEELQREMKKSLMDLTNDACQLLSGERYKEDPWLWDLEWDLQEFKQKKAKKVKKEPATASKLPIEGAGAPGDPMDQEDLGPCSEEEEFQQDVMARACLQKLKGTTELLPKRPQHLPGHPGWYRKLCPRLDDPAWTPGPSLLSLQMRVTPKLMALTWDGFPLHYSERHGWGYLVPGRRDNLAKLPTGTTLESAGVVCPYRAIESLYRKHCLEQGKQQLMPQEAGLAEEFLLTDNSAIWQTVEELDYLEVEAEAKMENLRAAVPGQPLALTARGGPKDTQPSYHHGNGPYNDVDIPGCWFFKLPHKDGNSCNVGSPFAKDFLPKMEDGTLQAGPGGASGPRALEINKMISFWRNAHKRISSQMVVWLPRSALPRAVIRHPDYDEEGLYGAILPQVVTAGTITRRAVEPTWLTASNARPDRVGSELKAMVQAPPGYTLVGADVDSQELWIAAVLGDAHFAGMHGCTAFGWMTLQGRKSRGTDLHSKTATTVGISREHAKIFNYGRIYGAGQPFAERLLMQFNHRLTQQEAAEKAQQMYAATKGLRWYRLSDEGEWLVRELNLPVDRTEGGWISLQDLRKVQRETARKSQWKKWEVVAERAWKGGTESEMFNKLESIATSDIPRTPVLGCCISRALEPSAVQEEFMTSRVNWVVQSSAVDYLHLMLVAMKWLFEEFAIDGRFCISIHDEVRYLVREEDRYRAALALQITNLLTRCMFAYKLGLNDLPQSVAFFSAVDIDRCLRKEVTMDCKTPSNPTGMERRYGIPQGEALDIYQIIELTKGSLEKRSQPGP
T1 sequence (Q9UHN1 1-485 partner): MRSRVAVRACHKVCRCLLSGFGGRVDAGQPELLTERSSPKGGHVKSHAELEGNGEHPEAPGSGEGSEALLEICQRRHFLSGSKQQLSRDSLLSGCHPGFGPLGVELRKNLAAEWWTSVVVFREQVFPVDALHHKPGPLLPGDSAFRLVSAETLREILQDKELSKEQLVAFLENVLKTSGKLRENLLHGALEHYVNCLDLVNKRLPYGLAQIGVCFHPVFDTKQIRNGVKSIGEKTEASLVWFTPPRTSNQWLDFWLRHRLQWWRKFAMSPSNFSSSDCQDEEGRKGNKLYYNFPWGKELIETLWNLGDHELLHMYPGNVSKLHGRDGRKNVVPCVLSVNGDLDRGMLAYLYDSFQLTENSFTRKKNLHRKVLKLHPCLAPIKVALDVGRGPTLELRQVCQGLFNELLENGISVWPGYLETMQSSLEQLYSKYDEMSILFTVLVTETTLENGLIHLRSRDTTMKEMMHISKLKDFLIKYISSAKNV
Assay type: biochemical

AC50	SMILES
> 100 µM	Cc1cc(S(=O)(=O)Nc2cccc(C(=O)N3CCCC3)c2)c(C)cc1Cl [Example 119, 4-chloro-2,5-dimethyl-N-(3-(pyrrolidine-1-carbonyl)phenyl) benzenesulfonamide]
3 µM	Cc1ccc(C)c(S(=O)(=O)Nc2csc(-c3ccccc3)n2)c1 [Example 134, 2,5-dimethyl-N-(2-phenylthiazol-4-yl)benzenesulfonamide]
> 100 µM	Cc1cc(S(=O)(=O)N[C@H]2CCCN(C(=O)c3ccccc3)C2)c(C)cc1Cl [Example 129, (S)-N-(1-benzoylpiperidin-3-yl)-4-chloro-2,5-dimethylbenzenesulfonamide]
> 100 µM	Cc1ccc(S(=O)(=O)Nc2csc(-c3ccccc3)n2)c(C)c1 [Example 123, 2,4-dimethyl-N-(2-phenylthiazol-4-yl)benzenesulfonamide]
> 100 µM	C[C@@H]1CCCN1C(=O)c1cccc(NS(=O)(=O)c2ccc(C(F)(F)F)cc2)c1 [Example 118, (R)-N-(3-(2-methylpyrrolidine-1-carbonyl)phenyl)-4-(trifluoromethyl)benzenesulfonamide]
